Measured values published in ChEMBL document CHEMBL2216752, “Carnitine palmitoyltransferase (CPT) modulators: a medicinal chemistry perspective on 35 years of research” (J Med Chem, 2011).

Experiments:
[1] = Inhibition of human FAO
[2] = system: Mus musculus; experiment: Reduction in blood glucose level in db/db mouse at 50 mg/kg, po bid for 45 days; type: functional; set-up: scale not given: the % may be the effect or the level left
[3] = molecular target: T1, Carnitine O-palmitoyltransferase 2, mitochondrial (Homo sapiens, UniProt P23786); experiment: Inhibition of human CPT2
T1 sequence (P23786 whole entry): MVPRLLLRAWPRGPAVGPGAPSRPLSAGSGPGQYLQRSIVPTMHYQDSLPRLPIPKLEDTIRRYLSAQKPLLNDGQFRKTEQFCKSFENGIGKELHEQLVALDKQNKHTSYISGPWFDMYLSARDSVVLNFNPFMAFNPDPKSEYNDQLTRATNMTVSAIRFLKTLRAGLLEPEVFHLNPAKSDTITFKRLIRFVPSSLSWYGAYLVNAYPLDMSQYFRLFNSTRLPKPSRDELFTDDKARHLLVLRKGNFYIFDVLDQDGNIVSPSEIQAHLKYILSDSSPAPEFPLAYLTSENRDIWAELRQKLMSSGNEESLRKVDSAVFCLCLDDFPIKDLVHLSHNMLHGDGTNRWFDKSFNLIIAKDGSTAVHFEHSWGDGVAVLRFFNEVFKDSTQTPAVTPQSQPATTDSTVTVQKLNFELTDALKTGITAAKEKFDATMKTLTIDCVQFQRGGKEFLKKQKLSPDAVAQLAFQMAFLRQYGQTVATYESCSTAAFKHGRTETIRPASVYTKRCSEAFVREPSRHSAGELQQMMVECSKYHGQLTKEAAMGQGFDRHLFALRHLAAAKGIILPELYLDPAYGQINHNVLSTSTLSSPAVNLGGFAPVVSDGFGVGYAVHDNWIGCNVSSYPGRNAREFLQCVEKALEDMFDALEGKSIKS

[4] = system: Mus musculus; experiment: Reduction in water consumption in db/db mouse at 50 mg/kg, po bid for 45 days; type: functional; set-up: scale not given: the % may be the effect or the level left
[5] = Inhibition of rat FAO
[6] = system: Cynomolgus monkey; experiment: Inhibition of ketogenesis in fasted po dosed cynomolgus monkey; type: functional; conditions: Macaca fascicularis
[7] = system: Mus musculus; experiment: Reduction in serum glucose in db/db mouse at 50 mg/kg, po bid for 45 days; type: functional; set-up: scale not given: the % may be the effect or the level left
[8] = system: Rattus norvegicus; experiment: Reduction in glucose production in Sprague-Dawley rat at 5 to 25 pmol, icv administered as one or two single doses; type: functional; set-up: scale not given: the % may be the effect or the level left
[9] = Half life in NIDD patient at 150 to 450 mg/day, po for 15 days; type: ADME, organism-based; conditions: human, in vivo
[10] = molecular target: T2, Carnitine O-palmitoyltransferase 1, liver isoform (Homo sapiens, UniProt P50416); experiment: Inhibition of human CPT1A
T2 sequence (P50416 whole entry): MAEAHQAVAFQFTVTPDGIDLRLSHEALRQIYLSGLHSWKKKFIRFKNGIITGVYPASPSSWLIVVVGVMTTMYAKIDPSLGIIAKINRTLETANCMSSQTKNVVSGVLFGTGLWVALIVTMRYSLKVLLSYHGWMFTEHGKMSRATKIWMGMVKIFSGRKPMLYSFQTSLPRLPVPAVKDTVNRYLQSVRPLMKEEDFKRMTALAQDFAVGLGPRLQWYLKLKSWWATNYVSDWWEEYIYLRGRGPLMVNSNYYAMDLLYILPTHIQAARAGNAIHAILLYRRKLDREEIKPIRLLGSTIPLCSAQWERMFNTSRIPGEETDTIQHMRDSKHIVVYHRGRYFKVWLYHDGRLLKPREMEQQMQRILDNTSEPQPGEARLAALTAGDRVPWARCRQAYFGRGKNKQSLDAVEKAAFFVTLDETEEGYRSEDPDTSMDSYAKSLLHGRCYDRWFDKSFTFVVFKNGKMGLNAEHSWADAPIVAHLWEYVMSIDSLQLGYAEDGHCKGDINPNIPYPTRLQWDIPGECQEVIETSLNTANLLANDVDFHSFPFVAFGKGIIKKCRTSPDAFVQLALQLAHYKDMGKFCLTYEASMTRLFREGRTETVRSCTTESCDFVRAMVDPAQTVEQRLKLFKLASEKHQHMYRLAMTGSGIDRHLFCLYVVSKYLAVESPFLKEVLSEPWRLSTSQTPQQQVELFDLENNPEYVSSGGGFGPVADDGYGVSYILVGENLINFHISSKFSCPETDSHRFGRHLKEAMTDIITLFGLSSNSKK

[11] = molecular target: T3, Carnitine O-palmitoyltransferase 2, mitochondrial (Rattus norvegicus, UniProt P18886); experiment: Inhibition of rat CPT2
T3 sequence (P18886 whole entry): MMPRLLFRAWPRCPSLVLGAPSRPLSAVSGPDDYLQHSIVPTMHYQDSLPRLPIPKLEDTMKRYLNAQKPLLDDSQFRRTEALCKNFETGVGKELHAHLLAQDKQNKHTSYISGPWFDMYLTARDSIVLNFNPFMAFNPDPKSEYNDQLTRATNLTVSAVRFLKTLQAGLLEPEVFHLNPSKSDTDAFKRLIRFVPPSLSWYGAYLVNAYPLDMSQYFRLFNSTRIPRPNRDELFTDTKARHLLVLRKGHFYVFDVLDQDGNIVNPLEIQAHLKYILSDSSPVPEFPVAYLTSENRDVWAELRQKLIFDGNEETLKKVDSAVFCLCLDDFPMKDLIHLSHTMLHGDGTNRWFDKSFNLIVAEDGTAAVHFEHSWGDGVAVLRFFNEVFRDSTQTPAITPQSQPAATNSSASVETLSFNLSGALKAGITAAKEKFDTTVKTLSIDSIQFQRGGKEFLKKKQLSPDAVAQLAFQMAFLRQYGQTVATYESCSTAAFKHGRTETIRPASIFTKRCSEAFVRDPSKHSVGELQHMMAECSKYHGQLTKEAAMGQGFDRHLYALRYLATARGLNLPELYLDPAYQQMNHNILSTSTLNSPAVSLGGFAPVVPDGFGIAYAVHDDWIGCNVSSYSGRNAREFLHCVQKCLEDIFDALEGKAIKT

[12] = system: Mus musculus; experiment: Increase in liver TG level in db/db mouse at 50 mg/kg, po bid for 45 days; type: functional
[13] = system: Homo sapiens; experiment: Reduction in HOMA index in NIDD patient at 450 mg/day, po for 15 days; type: functional; set-up: scale not given: the % may be the effect or the level left
[14] = Inhibition of carnitine palmitoyltransferase in rat heart mitochondria assessed as conversion of [14C]palmitic acid to [14C]palmitoylcarnitine by radiometric assay
[15] = Inhibition of carnitine palmitoyltransferase in rat liver mitochondria assessed as conversion of [14C]palmitic acid to [14C]palmitoylcarnitine by radiometric assay
[16] = system: Mus musculus; experiment: Reduction in liver glycogen level in db/db mouse at 50 mg/kg, po bid for 45 days; type: functional; set-up: scale not given: the % may be the effect or the level left
[17] = molecular target: T4, Carnitine O-palmitoyltransferase 1, muscle isoform (Homo sapiens, UniProt Q92523); experiment: Inhibition of human CPT1B
T4 sequence (Q92523 whole entry): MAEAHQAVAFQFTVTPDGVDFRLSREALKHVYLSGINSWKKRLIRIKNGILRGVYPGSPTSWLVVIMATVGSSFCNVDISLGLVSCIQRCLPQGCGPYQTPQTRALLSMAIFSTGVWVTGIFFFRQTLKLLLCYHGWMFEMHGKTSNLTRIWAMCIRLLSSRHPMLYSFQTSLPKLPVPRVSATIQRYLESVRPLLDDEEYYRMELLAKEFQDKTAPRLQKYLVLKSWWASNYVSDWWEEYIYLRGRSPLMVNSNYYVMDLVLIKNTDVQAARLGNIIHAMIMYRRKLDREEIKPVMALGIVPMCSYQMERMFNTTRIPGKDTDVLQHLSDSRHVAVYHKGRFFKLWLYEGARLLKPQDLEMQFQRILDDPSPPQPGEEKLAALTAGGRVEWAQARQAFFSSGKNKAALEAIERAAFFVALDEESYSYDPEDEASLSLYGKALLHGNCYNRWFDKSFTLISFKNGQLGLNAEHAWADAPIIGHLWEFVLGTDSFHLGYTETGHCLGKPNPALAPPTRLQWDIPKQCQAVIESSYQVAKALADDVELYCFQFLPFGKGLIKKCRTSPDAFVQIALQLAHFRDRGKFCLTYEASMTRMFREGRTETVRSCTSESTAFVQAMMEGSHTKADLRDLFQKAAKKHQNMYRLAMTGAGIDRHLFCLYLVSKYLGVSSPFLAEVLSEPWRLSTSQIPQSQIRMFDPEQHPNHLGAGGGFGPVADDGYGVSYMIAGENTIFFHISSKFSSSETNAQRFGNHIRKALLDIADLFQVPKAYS

[18] = system: Mus musculus; experiment: Increase in circulating FFA level in db/db mouse at 50 mg/kg, po bid for 45 days; type: functional
[19] = system: Homo sapiens; experiment: Reduction in fasting insulin in NIDD patient at 450 mg/day, po for 15 days; type: functional; set-up: scale not given: the % may be the effect or the level left
[20] = Critical micelle concentration of compound; type: physicochemical
[21] = system: Mus musculus; experiment: Reduction in glucose level in db/db mouse at 80 mg/kgl/day, po for 12 days; type: functional; set-up: scale not given: the % may be the effect or the level left; conditions: dose 80 mg/kg
[22] = system: Mus musculus; experiment: Reduction in serum fructosamine level in db/db mouse at 50 mg/kg, po bid for 45 days; type: functional; set-up: scale not given: the % may be the effect or the level left
[23] = Competitive inhibition of carnitine palmitoyltransferase using palmitoyl-CoA
[24] = molecular target: T2, Carnitine O-palmitoyltransferase 1, liver isoform; experiment: Inhibition of CPT1 in liver mitochondria
[25] = system: Rattus norvegicus; experiment: Reduction in KB level in Sprague-Dawley rat at 0.44 mg/kg, po; type: functional; set-up: scale not given: the % may be the effect or the level left
[26] = Inhibition of carnitine palmitoyltransferase in 18 hr fasted rat hepatocytes; type: cell-based; conditions: hepatocyte
[27] = Inhibition of carnitine palmitoyltransferase in 18 hr fasted rat liver homogenates; type: tissue-based
[28] = system: Rattus norvegicus; experiment: Reduction in glucose level in Sprague-Dawley rat at 88 mg/kg, po; type: functional; set-up: scale not given: the % may be the effect or the level left
[29] = molecular target: T1, Carnitine O-palmitoyltransferase 2, mitochondrial; experiment: Competitive inhibition of CPT2 in liver mitochondria using carnitine
[30] = molecular target: T1, Carnitine O-palmitoyltransferase 2, mitochondrial; experiment: Competitive inhibition of CPT2 in heart mitochondria using carnitine
[31] = molecular target: T1, Carnitine O-palmitoyltransferase 2, mitochondrial; experiment: Competitive inhibition of CPT2
[32] = molecular target: T5, Carnitine O-palmitoyltransferase 1, liver isoform (Homo sapiens) (UniProt P50416); experiment: Increase in CPT1A activity in hepatocytes at 60 uM; type: cell-based; conditions: Hepatocyte
T5 sequence (whole entry): T2 sequence (P50416 whole entry)

[33] = molecular target: T5, Carnitine O-palmitoyltransferase 1, liver isoform (Homo sapiens); experiment: Increase in CPT1 activity in human MCF7 cells assessed as increase in radiolabeled palmitoylcarnitine at 31 uM; type: cell-based
[34] = system: Hepatocyte; experiment: Stimulation of FAO in hepatocytes at 28 uM; type: cell-based
[35] = molecular target: T2, Carnitine O-palmitoyltransferase 1, liver isoform; experiment: Increase in CPT1 activity in human MCF7 cells assessed as increase in radiolabeled palmitoylcarnitine; type: cell-based
[36] = molecular target: T5, Carnitine O-palmitoyltransferase 1, liver isoform (Homo sapiens); experiment: Increase in CPT1 activity in human MCF7 cells assessed as increase in radiolabeled palmitoylcarnitine relative to untreated control; type: cell-based

CCCCCCCCCCCCCCNC(=O)N[C@H](CC(=O)[O-])C[N+](C)(C)C
IC50 [1]: 4 µM | Activity [2]: 39% | IC50 [3]: 0.16 µM | Activity [4]: 30% | IC50 [5]: 0.98 µM | ED50 [6]: 0.5 mg/kg | Activity [7]: 25% | Activity [8]: 45% | half-life [9]: 25 h | IC50 [10]: 1.05 µM | IC50 [11]: 0.38 µM | Activity [12]: 38% | Activity [13]: 25% | IC50 [14]: 43.4 µM | IC50 [15]: 1.1 µM | Activity [16]: 25% | IC50 [17]: 5.4 µM | Activity [18]: 20% | Activity [19]: 12% | CMC [20]: 29 µM | Activity [21]: 26% | Activity [22]: 30% | Ki [23]: 0.36 µM

COc1ccc(CN2CCN(CCCSc3cc(C(C)(C)C)c(O)c(C(C)(C)C)c3)CC2)c(OC)c1OC
IC50 [24]: 51 µM

CCCCCCCCCCCCCCOP(=O)([O-])O[C@H](CC(=O)O)C[N+](C)(C)C
Activity [25]: 77% | IC50 [26]: 3 µM | IC50 [14]: 62 µM | IC50 [15]: 17.4 µM | IC50 [27]: 36 µM | Ki [23]: 3.6 µM | Activity [28]: 20%

CCCCCCCCCCCCCCC[C@@]1(O)C[N+](C)(C)C[C@@H](CC(=O)[O-])O1 (racemic)
Ki [29]: 4.2 µM | Ki [30]: 2.8 µM | Ki [31]: 0.16 µM

C=CCC1(CC=C)C(=O)S[C@](C)(CCCCCCCC)C1=O
Activity [32]: 150% | Activity [33]: 177% | Activity [34]: 150% | EC50 [35]: 3 µM | Activity [36]: 140%
